Experiment [1] relates to Flag-GR80 in HEK293T cells. The experiment can be described thus: Flag-GR80 level in HEK293T cells (non-canonical Notch/AKT/VCP modulation). The experiment is classed as cell-based. The following applies: FIGS. 91-93.
Experiment [2] relates to patient fibroblasts. The experiment can be described thus: poly(GR) level and mitochondrial morphology in patient fibroblasts (AKT/VCP modulation). The experiment is classed as cell-based, human.
In experiment [3] the test system is C9ALS/FTD BAC transgenic mice (C9-500). The experiment can be described thus: Rotarod assay in C9-500 BAC transgenic mice. Format: in vivo, mouse. The note with it: C9-500 mice, i.p. 40 mg/kg/day, FIG. 95. As to the method:
(§1) Non-canonical Notch regulation of poly(GR) was then tested in mammalian cells. In HEK293T cells, overexpression of Notch (FIG. 91), or treatment of cells with the ATK activator SC79 (FIGS. 91 & 92) reduced Flag-GR80 level, whereas small molecule inhibitor of AKT (AKTi) or VCP (VCPi) increased Flag-GR80 level (FIG. 93). Similar to fly tissue, the Notch overexpression effect was blocked by VCPi (FIG. 91). […] On the other hand, AKTi or VCPi increased poly(GR) level (FIGS. 78 & 94). To further test the in vivo relevance, the C9ALS/FTD BAC transgenic mice (C9-500) were examined, which express a human C9orf72 gene with ˜500 G4C2 repeats. Treatment of C9-500 mice by i.p. injection of SC79 (40 mg/kg/day) improved motor behavior as detected with the rotarod assay (FIG. 95). This was correlated with rescue of muscle mitochondrial morphology (FIGS. 95 & 96) and reduction of poly(GR) (FIGS. 97 & 98) but not poly(GA) (FIGS. 98 & 99) levels in muscle tissue. […]
Female C9-500 BAC transgenic mice were i.p. injected with sc79 (Selleckchem) at 40 mg/kg/day (n=10) or vehicle (DMSO [Sigma]: PEG300 [Spectrum]: 2-Hydroxypropyl-beta-cyclodextran (20%) [Sigma] at 1:3:1) (n=8) from 16 weeks of age and continued for 3 months. […] Once all the mice were “ready”, the start button was pushed and the test began. […] The fall-off times of each animal were recorded and used for statistical analysis.
(In general: The rotarod test checks motor coordination on a turning rod.)

Experiment [4] relates to muscle tissue of C9-500 mice. The experiment in a line: Muscle mitochondrial morphology and DPR levels in C9-500 mice. The note with it: i.p. 40 mg/kg/day. The experiment is classed as in vivo, mouse. As to the method: as §1
Female C9-500 BAC transgenic mice were i.p. injected with sc79 (Selleckchem) at 40 mg/kg/day (n=10) or vehicle (DMSO [Sigma]: PEG300 [Spectrum]: 2-Hydroxypropyl-beta-cyclodextran (20%) [Sigma] at 1:3:1) (n=8) from 16 weeks of age and continued for 3 months. […] Once all the mice were “ready”, the start button was pushed and the test began. […] The fall-off times of each animal were recorded and used for statistical analysis. […]

The subject of experiment [5] is GR80 fly muscle. The experiment can be described thus: Nigericin treatment of GR80 transgenic flies. The experiment is classed as in vivo, Drosophila. The text has this:
To further test whether high MMP and altered ion homeostasis contribute to GR80 toxicity, GR80 flies we treated with nigericin, a K^+/H^+ antiporter that can re-balance mitochondrial matrix ion levels. […] Moreover, the aberrant interactions between MICOS subunits caused by GR80 (FIG. 42) and the elevated mito-K^+ in GR80 flies were rescued after nigericin treatment (FIGS. 41 & 42). Thus, by restoring mitochondrial ion homeostasis, nigericin may affect the MICOS structure and, in turn, GR80 stability, similar to the effects of the genetic manipulation of MICOS, although other mechanisms of nigericin action cannot be excluded.
Newly hatched flies were collected and placed into vials with instant fly food (Carolina Biological Supply Company, USA) mixed with different doses ([…]) of Nigericin (Cayman Chemical, 11437) from the stock solution (50 mM dissolved in DMSO). The flies were fed for 7 days and changed with fresh vial every 24 hours. After treatments, fly thoracic samples were harvested and used for sample preparation.

Experiment [6] relates to fibroblasts from C9-ALS/FTD patients carrying C9ORF72 G4C2 repeat expansion. The experiment can be described thus: Nigericin treatment of C9-ALS/FTD patient fibroblasts. Format: cell-based, human. The method, then: (§2) Finally, it was tested whether the pathogenic mechanisms uncovered in flies are relevant to GR toxicity in patient cells. In fibroblasts from C9-ALS/FTD patients carrying C9ORF72 G4C2 repeat expansion, GR was present in the mitochondrial fraction, as shown by dot blot (FIG. 46) and immunostaining (FIG. 46), although nuclear GR was also detected (FIG. 46). […] Thus, altered mitochondrial inner membrane structure and ion homeostasis are conserved features of C9-ALS. There were also GR interactions with Mic27/Apool in patient fibroblasts (FIG. 49). Nigericin treatment (FIGS. 50 & 51) or knockdown of key MICOS components (FIGS. 49 & 52) rescued the mitochondrial defects in patient fibroblasts. […] Nigericin treatment (FIG. 54) or knockdown of key MICOS components (FIG. 53) reduced the GR level in patient cells, but nigericin had no effect on the GA level (FIG. 53).

Experiment [7] relates to HEK293 cells transfected with GR80. The experiment in a line: mito-K+ in HEK293 cells transfected with GR80. The following applies: HEK293 cells transfected with GR80, FIG. 53. The experiment is classed as cell-based. As to the method: as §2
In experiment [8] the test system is GR80. The experiment can be described thus: Effect of CAT-tailing inhibition on poly(GR) level. The experiment is classed as cell-based. The note with it: FIG. 82. The text has this:
Ribosome-stalled NPC is modified by a non-templated, 40S-independent CAT-tailing process that depends on Tae2/Clbn/NEMF family proteins. CAT-tailed substrates escaping the quality control system can accumulate and form aggregates. […] Consistently, RNAi of a fly homolog of Vms1, a stress-responsive mitochondrial RQC factor that antagonizes CAT-tailing by cleaving peptidyl-tRNA bond, increased high MW GR80 signal and total GR80 abundance (FIG. 77), whereas overexpression of mammalian Vms1 (ANKZF1) had opposite effect (FIG. 78). In C9ALS fibroblasts, ANKZF1 RNAi increased, whereas NEMF RNAi decreased poly(GR) (FIG. 78). Thus steady-state poly(GR) level is positively correlated with a CAT-tailing-like process.
The role of Ala- or Thr-tRNA synthetase (AARS or TARS) was examined. […] The specificity of the ARS effect was shown by the lack of effect of the other ARSs tested (FIG. 79). Thus AARS/TARS, and possibly select other ARSs (e.g., IARS), appear to be involved in GR80 CAT-tailing, and that CAT-tailing confers stabilization, aggregation, and toxicity. Further supporting this notion, poly(GR) containing an artificial CAT-tail (GR71-AT15) formed prominent aggregates on mitochondria on its own, and its level was not affected by NEMF RNAi or anisomycin treatment (FIG. 82).

Consider `CCOC(=O)C1=C(N)Oc2ccc(Cl)cc2C1C(C#N)C(=O)OCC` (centres unmarked) [SC79], for which the Flag-GR80 level result in experiment [1] is reported as “reduced”. For the same compound, the mitochondrial morphology entry in experiment [2] (FIG. 93) is reported as “rescued”. The “poly(GR) level” value in experiment [2] (FIGS. 78 & 94) is listed as “significantly reduced”. In addition, the “motor behavior as detected with the rotarod assay” value in experiment [3] is on record as “improved”. Besides, in experiment [4] (FIGS. 95 & 96), the muscle mitochondrial morphology entry was “rescue”. For the same compound, the “poly(GR) level in muscle tissue” value in experiment [4] (FIGS. 97 & 98) is recorded as “reduction”.
On to `CO[C@@H]1C[C@@H](C[C@H]2CC[C@H](C)[C@H]([C@@H](C)C(=O)O)O2)O[C@]2(O[C@](C)([C@H]3CC[C@@](C)([C@@H]4O[C@@H]([C@H]5O[C@@](O)(CO)[C@H](C)C[C@@H]5C)C[C@@H]4C)O3)C[C@H]2C)[C@@H]1C` [nigericin], for which the “GR80 level in fly muscle” value in experiment [5] (GR80 flies, FIG. 44) is listed as “significantly reduced”. The mitochondrial morphology result in experiment [5] (GR80 flies, low concentrations of nigericin in food, FIG. 43) was “effectively restored”. For the same compound, the “GR80 fly wing-posture defect” value in experiment [5] (GR80 flies, nigericin in food, FIG. 44) is recorded as “rescue”. Besides, the “aberrant interactions between MICOS subunits caused by GR80” value in experiment [5] (after nigericin treatment, FIG. 42) is given as “rescued”. For the same compound, the “elevated mito-K+ in GR80 flies” value in experiment [5] (after nigericin treatment, FIGS. 41 & 42) is on record as “rescued”. Moreover, the GA80 level entry in experiment [5] (flies, specificity control, FIG. 42) is recorded as “did not affect”. In addition, the “GR level in patient cells” value in experiment [6] (C9-ALS/FTD patient fibroblasts, FIG. 54) was “reduced”. Besides, in experiment [6] (C9-ALS/FTD patient fibroblasts, FIGS. 50 & 51), the “mitochondrial defects in patient fibroblasts” value is reported as “rescued”. The GA level result in experiment [6] (patient cells, FIG. 53) was “no effect”. In addition, in experiment [7], the “GR-induced mito-K+ increase” value is “reduced”.
Take `COc1ccc(C[C@H]2NC[C@H](O)[C@H]2OC(C)=O)cc1` [Anisomycin, anisomycin]: the “level of poly(GR) containing an artificial CAT-tail (GR71-AT15)” value in experiment [8] is recorded as “not affected”.

The record behind these values is patent US20220389067A1, “Methods of Treating Neurodegenerative Diseases Caused by G4C2 Expansion in C9ORF72” (The Board of Trustees of the Leland Stanford Junior …, priority 2019, published 2022).
